Test results taken from US6620839B2, “1,3-disubstituted and 1,3,3-trisubstituted pyrrolidines as histamine-3 receptor ligands and their therapeutic applications” (Abbott Laboratories, priority 2000, dated 2003).

Each compound was assayed against T1, histamine-3 receptor (Rattus norvegicus, UniProt Q9QYN8) (assay: Histamine-3 receptor binding, (3H)-N-α-methylhistamine displacement in rat cortical membranes). Details: male Sprague-Dawley rat brain cortical membranes; (3H)-N-α-methylhistamine ~0.6 nM; 30 minutes at 25° C.; Cheng-Prusoff.
T1 construct: from tissue; host or cells: male Sprague-Dawley rat brain cortex membranes
Method: Briefly, male Sprague-Dawley rat brain cortices were homogenized (1 g tissue/10 mL buffer) in 50 mM Tris-HCl/5 mM EDTA containing protease inhibitor cocktail (Calbiochem) using a polytron set at 20,500 rpm. Homogenates were centrifuged for 20 minutes at 40,000×g. The supernatant was decanted, and pellets were weighed. The pellet was resuspended by polytron homogenization in 40 mL 50 mM Tris-HCl/5 mM EDTA with protease inhibitors and centrifuged for 20 minutes at 40,000×g. […] Test compounds were dissolved in DMSO to provide 20 mM solution, serially diluted and then added to the incubation mixtures prior to initiating the incubation assay by addition of the membranes. Thioperamide (3 μM) was used to determine nonspecific binding. Binding incubations were conducted for 30 minutes at 25° C. and terminated by addition of 2 mL of ice cold 50 mM Tris-HCl (pH 7.7) and filtration through 0.3% polyethylenimine-soaked Unifilter plates (Packard). These filters were washed 4 additional times with 2 mL of ice-cold 50 mM Tris-HCl and dried for 1 hour. Radioactivity was determined using liquid scintillation counting techniques. Results were analyzed by Hill transformation and Ki values were determined using the Cheng-Prusoff equation.

T1 sequence (Q9QYN8 whole entry): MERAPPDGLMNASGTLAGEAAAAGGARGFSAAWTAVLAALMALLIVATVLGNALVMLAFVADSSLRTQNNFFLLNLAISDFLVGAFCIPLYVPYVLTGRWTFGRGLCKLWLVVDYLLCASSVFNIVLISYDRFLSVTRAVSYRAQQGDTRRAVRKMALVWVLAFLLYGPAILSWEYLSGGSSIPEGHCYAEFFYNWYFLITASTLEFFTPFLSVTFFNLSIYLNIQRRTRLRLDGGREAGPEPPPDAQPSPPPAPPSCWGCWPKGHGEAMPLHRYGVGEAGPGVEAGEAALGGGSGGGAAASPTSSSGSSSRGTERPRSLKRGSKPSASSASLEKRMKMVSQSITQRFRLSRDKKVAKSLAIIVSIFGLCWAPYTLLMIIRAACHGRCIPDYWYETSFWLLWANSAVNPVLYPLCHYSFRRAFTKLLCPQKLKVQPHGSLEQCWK

Ki | Compound
5.2 nM | CC(C)(C)c1ccc(S(=O)(=O)N[C@@H]2CCN(CCCOc3ccc(C(=O)C4CC4)cc3)C2)cc1 [Example 60, 4-tert-butyl-N-((3R)-1-{3-[4-(cyclopropylcarbonyl)phenoxy]propyl}pyrrolidinyl)benzenesulfonamide]
4.2 nM | Cc1ccc(S(=O)(=O)N[C@@H]2CCN(CCCOc3ccc(C(=O)C4CC4)cc3)C2)cc1 [Example 61, N-((3R)-1-{3-[4-(cyclopropylcarbonyl)phenoxy]propyl}pyrrolidinyl)-4-methylbenzenesulfonamide]
6.4 nM | O=C(c1ccc(OCCCN2CC[C@@H](NS(=O)(=O)c3cccc(C(F)(F)F)c3)C2)cc1)C1CC1 [Example 62, N-((3R)-1-{3-[4-(cyclopropylcarbonyl)phenoxy]propyl}pyrrolidinyl)-3-(trifluoromethyl)benzenesulfonamide]
12 nM | COc1ccc(OC)c(S(=O)(=O)N[C@@H]2CCN(CCCOc3ccc(C(=O)C4CC4)cc3)C2)c1 [Example 63, N-((3R)-1-{3-[4-(cyclopropylcarbonyl)phenoxy]propyl}pyrrolidinyl)-2,5-dimethoxybenzenesulfonamide]
11 nM | Cc1ccccc1S(=O)(=O)N[C@@H]1CCN(CCCOc2ccc(C(=O)C3CC3)cc2)C1 [Example 64, N-((3R)-1-{3-[4-(cyclopropylcarbonyl)phenoxy]propyl}pyrrolidinyl)-2-methylbenzenesulfonamide]
5 nM | O=C(c1ccc(OCCCN2CC[C@@H](NS(=O)(=O)c3ccc(F)c(Cl)c3)C2)cc1)C1CC1 [Example 65, 3-chloro-N-((3R)-1-{3-[4-(cyclopropylcarbonyl)phenoxy]propyl}pyrrolidinyl)-4-fluorobenzenesulfonamide]
4.6 nM | CCc1ccc(S(=O)(=O)N[C@@H]2CCN(CCCOc3ccc(C(=O)C4CC4)cc3)C2)cc1 [Example 66, N-((3R)-1-{3-[4-(cyclopropylcarbonyl)phenoxy]propyl}pyrrolidinyl)-4-ethylbenzenesulfonamide]
2.8 nM | O=C(c1ccc(OCCCN2CC[C@@H](NS(=O)(=O)c3ccccc3F)C2)cc1)C1CC1 [Example 68, N-((3R)-1-{3-[4-(cyclopropylcarbonyl)phenoxy]propyl}pyrrolidinyl)-2-fluorobenzenesulfonamide]
3 nM | O=C(c1ccc(OCCCN2CC[C@@H](NS(=O)(=O)c3cccc(Cl)c3)C2)cc1)C1CC1 [Example 70, 3-chloro-N-((3R)-1-{3-[4-(cyclopropylcarbonyl)phenoxy]propyl}pyrrolidinyl)benzenesulfonamide]
2.8 nM | N#Cc1cccc(S(=O)(=O)N[C@@H]2CCN(CCCOc3ccc(C(=O)C4CC4)cc3)C2)c1 [Example 71, 3-cyano-N-((3R)-1-{3-[4-(cyclopropylcarbonyl)phenoxy]propyl}pyrrolidinyl)benzenesulfonamide]
7.9 nM | CC(=O)c1ccc(OCCCN2CC[C@@H](NS(=O)(=O)c3cccc(F)c3)C2)cc1 [Example 72, N-{(3R)-1-[3-(4-acetylphenoxy)propyl]pyrrolidinyl}-3-fluorobenzenesulfonamide]
5.6 nM | CC(=O)c1ccc(OCCCN2CC[C@@H](NS(=O)(=O)c3ccc(F)cc3F)C2)cc1 [Example 74, N-{(3R)-1-[3-(4-acetylphenoxy)propyl]pyrrolidinyl}-2,4-difluorobenzenesulfonamide]
19 nM | CC(=O)c1ccc(OCCCN2CC[C@@H](NS(=O)(=O)c3cccc4cnccc34)C2)cc1 [Example 75, N-{(3R)-1-[3-(4-acetylphenoxy)propyl]pyrrolidinyl}-5-isoquinolinesulfonamide]
4.9 nM | CC(=O)Nc1ccc(S(=O)(=O)N[C@@H]2CCN(CCCOc3ccc(C(C)=O)cc3)C2)cc1Cl [Example 76, N-{4-[({(3R)-1-[3-(4-acetylphenoxy)propyl]pyrrolidinyl}amino)sulfonyl]-2-chlorophenyl}acetamide]
5.3 nM | CC(=O)c1ccc(OCCCN2CC[C@@H](NS(=O)(=O)c3ccc(Cl)c(Cl)c3)C2)cc1 [Example 77, N-{(3R)-1-[3-(4-acetylphenoxy)propyl]pyrrolidinyl}-3,4-dichlorobenzenesulfonamide]

Further lines, the compound ahead of its results:

Compound | Ki
N#Cc1ccc(-c2ccc(OCCCN3CC[C@@H](NS(=O)(=O)c4ccccc4OC(F)(F)F)C3)cc2)cc1 [Example 45] | 127 nM
N#Cc1ccc(-c2ccc(OCCCN3CC[C@@H](NS(=O)(=O)c4ccccc4C#N)C3)cc2)cc1 [Example 46, 2-cyano-N-((3R)-1-{3-[(4′-cyano[1,1′-biphenyl]-4-yl)oxy]propyl}pyrrolidinyl)benzenesulfonamide] | 103 nM
Cc1cccc(S(=O)(=O)N[C@@H]2CCN(CCCOc3ccc(-c4ccc(C#N)cc4)cc3)C2)c1 [Example 47] | 12 nM
N#Cc1ccc(-c2ccc(OCCCN3CC[C@@H](NS(=O)(=O)c4ccc(C(F)(F)F)cc4)C3)cc2)cc1 [Example 48] | 60 nM
N#Cc1ccc(-c2ccc(OCCCN3CC[C@@H](NS(=O)(=O)c4cccc(F)c4)C3)cc2)cc1 [Example 49] | 13 nM
N#Cc1ccc(-c2ccc(OCCCN3CC[C@@H](NS(=O)(=O)c4ccc(OC(F)(F)F)cc4)C3)cc2)cc1 [Example 50] | 60 nM
N#Cc1ccc(-c2ccc(OCCCN3CC[C@@H](NS(=O)(=O)c4ccc(F)cc4F)C3)cc2)cc1 [Example 51] | 9.3 nM
N#Cc1ccc(-c2ccc(OCCCN3CC[C@@H](NS(=O)(=O)c4ccc5ccncc5c4)C3)cc2)cc1 [Example 52] | 15 nM
CC(=O)Nc1ccc(S(=O)(=O)N[C@@H]2CCN(CCCOc3ccc(-c4ccc(C#N)cc4)cc3)C2)cc1Cl [Example 53, N-(2-chloro-4-{[((3R)-1-{3-[(4′-cyano[1,1′-biphenyl]-4-yl)oxy]propyl}pyrrolidinyl)amino]sulfonyl}phenyl)acetamide] | 3.9 nM
N#Cc1ccc(-c2ccc(OCCCN3CC[C@@H](NS(=O)(=O)c4ccc(Cl)c(Cl)c4)C3)cc2)cc1 [Example 54, 3,4-dichloro-N-((3R)-1-{3-[(4′-cyano[1,1′-biphenyl]-4-yl)oxy]propyl}pyrrolidinyl)benzenesulfonamide] | 98 nM
O=C(c1ccc(OCCCN2CC[C@@H](NS(=O)(=O)c3ccccc3)C2)cc1)C1CC1 [Example 55, N-((3R)-1-{3-[4-(cyclopropylcarbonyl)phenoxy]propyl}pyrrolidinyl)benzenesulfonamide] | 2.9 nM
O=C(c1ccc(OCCCN2CC[C@@H](NS(=O)(=O)c3ccc(Br)cc3)C2)cc1)C1CC1 [Example 56, 4-bromo-N-((3R)-1-{3-[4-(cyclopropylcarbonyl)phenoxy]propyl}pyrrolidinyl)benzenesulfonamide] | 4.7 nM
O=C(c1ccc(OCCCN2CC[C@@H](NS(=O)(=O)c3ccc(F)cc3)C2)cc1)C1CC1 [Example 57, N-((3R)-1-{3-[4-(cyclopropylcarbonyl)phenoxy]propyl}pyrrolidinyl)-4-fluorobenzenesulfonamide] | 3.6 nM
O=C(c1ccc(OCCCN2CC[C@@H](NS(=O)(=O)c3ccc(Cl)cc3)C2)cc1)C1CC1 [Example 58, 4-chloro-N-((3R)-1-{3-[4-(cyclopropylcarbonyl)phenoxy]propyl}pyrrolidinyl)benzenesulfonamide] | 3.9 nM
COc1ccc(S(=O)(=O)N[C@@H]2CCN(CCCOc3ccc(C(=O)C4CC4)cc3)C2)cc1 [Example 59, N-((3R)-1-{3-[4-(cyclopropylcarbonyl)phenoxy]propyl}pyrrolidinyl)-4-methoxybenzenesulfonamide] | 3 nM
